Results: patent US20260138958A1, “SUBSTITUTED N-PHENYLURACILS AND SALTS THEREOF, AND USE THEREOF AS HERBICIDAL ACTIVE SUBSTANCES” (Bayer Aktiengesellschaft, priority 2022, published 2026)

Legend:
Assay type in all cases: in vivo
[1] = tested on: Digitaria sanguinalis (DIGSA); assay: Post-emergence herbicidal action, greenhouse pot test
Experimental: (§1) Seeds of monocotyledonous and dicotyledonous weeds and crop plants were placed in sandy loam in plastic or wood-fibre pots, covered with soil and cultivated in a greenhouse under controlled growth conditions. 2 to 3 weeks after sowing, the test plants were treated at the one-leaf stage. The compounds of the invention, formulated in the form of wettable powders (WP) or as emulsion concentrates (EC), were then sprayed onto the green parts of the plants as aqueous suspension or emulsion with addition of 0.5% additive at a water application rate of 600 l/ha (converted). After the test plants had been kept in the greenhouse under optimum growth conditions for about 3 weeks, the activity of the preparations was rated visually in comparison to untreated controls. For example, 100% activity=the plants have died, 0% activity=like control plants.

[2] = tested on: Polygonum convolvulus (POLCO); assay: as above
Experimental: as §1

[3] = tested on: Pharbitis purpurea (PHBPU); assay: as above
Experimental: as §1

[4] = tested on: Lolium rigidum (LOLRI); assay: as above
Experimental: as §1

[5] = tested on: Bassia scoparia (KCHSC); assay: as above
Experimental: as §1

[6] = tested on: Amaranthus retroflexus (AMARE); assay: as above
Experimental: as §1

[7] = tested on: Veronica persica (VERPE); assay: as above
Experimental: as §1

[8] = tested on: Viola tricolor (VIOTR); assay: as above
Experimental: as §1

[9] = tested on: Setaria viridis (SETVI); assay: as above
Experimental: as §1

[10] = tested on: Tripleurospermum inodorum (MATIN); assay: as above
Experimental: as §1

[11] = tested on: Echinochloa crus-galli (ECHCG); assay: as above
Experimental: as §1

[12] = tested on: Abutilon theophrasti (ABUTH); assay: as above
Experimental: as §1

[13] = tested on: Alopecurus myosuroides (ALOMY); assay: as above
Experimental: as §1

[14] = tested on: Triticum aestivum (TRZAS); assay: Post-emergence crop plant compatibility, greenhouse pot test; settings: crop plant, post-emergence, 1.25 g/ha
Experimental: as §1
The observed effects on selected crop plants are reported here in comparison to the untreated controls (values in %).

Row | Compound | Post-emergence effect at 5 g/ha against DIGSA in % [1] [%] | Post-emergence effect at 20 g/ha against DIGSA in % [1] [%] | Post-emergence effect at 5 g/ha against POLCO in % [2] [%] | Post-emergence effect at 20 g/ha against POLCO in % [2] [%] | Post-emergence effect at 5 g/ha against PHBPU in % [3] [%] | Post-emergence effect at 20 g/ha against PHBPU in % [3] [%] | Post-emergence effect at 20 g/ha against LOLRI in % [4] [%] | Post-emergence effect at 1.25 g/ha against KCHSC in % [5] [%] | Post-emergence effect at 5 g/ha against KCHSC in % [5] [%] | Post-emergence effect at 20 g/ha against KCHSC in % [5] [%] | Post-emergence effect at 1.25 g/ha against AMARE in % [6] [%] | Post-emergence effect at 5 g/ha against AMARE in % [6] [%] | Post-emergence effect at 20 g/ha against AMARE in % [6] [%] | Post-emergence effect at 1.25 g/ha against VERPE in % [7] [%] | Post-emergence effect at 5 g/ha against VERPE in % [7] [%] | Post-emergence effect at 20 g/ha against VERPE in % [7] [%] | Post-emergence effect at 1.25 g/ha against VIOTR in % [8] [%] | Post-emergence effect at 5 g/ha against VIOTR in % [8] [%] | Post-emergence effect at 20 g/ha against VIOTR in % [8] [%] | Post-emergence effect at 1.25 g/ha against SETVI in % [9] [%] | also measured
1 | Cn1c(C(F)(F)F)cc(=O)n(-c2cc(Oc3ccccc3OCC(=O)OC(C#N)C3CC3)c(Cl)cc2F)c1=O (stereo not drawn) [I.7-4] | 100 | 100 | 100 | 100 | 100 | 100 | 100 | 100 | 100 | 100 | 100 | 100 | 100 | 100 | 100 | 100 | 100 | 100 | 100 | 100 | Post-emergence effect at 1.25 g/ha against PHBPU in % ([3]; 1.25 g/ha): 80%; Post-emergence effect at 5 g/ha against SETVI in % [9]: 100%; Post-emergence effect at 20 g/ha against SETVI in % [9]: 100%; Post-emergence effect at 5 g/ha against MATIN in % ([10]; 5 g/ha): 100%; Post-emergence effect at 20 g/ha against MATIN in % [10]: 100%; Post-emergence effect at 5 g/ha against ECHCG in % [11]: 100%; Post-emergence effect at 20 g/ha against ECHCG in % [11]: 100%; Post-emergence effect at 1.25 g/ha against ABUTH in % [12]: 100%; Post-emergence effect at 5 g/ha against ABUTH in % [12]: 100%; Post-emergence effect at 20 g/ha against ABUTH in % [12]: 100%; Post-emergence effect at 5 g/ha against ALOMY in % [13]: 80%; Post-emergence effect at 20 g/ha against ALOMY in % [13]: 100%; Post-emergence effect at 1.25 g/ha against TRZAS in % [14]: 20%
2 | Cn1c(C(F)(F)F)cc(=O)n(-c2cc(Oc3ccccc3OCC(=O)OCC3(F)CC3)c(Cl)cc2F)c1=O [I.7-6] | 100 | 100 | 100 | 100 | 100 | 100 | 80 | 100 | 100 | 100 | 100 | 100 | 100 | 100 | 100 | 100 | 100 | 100 | 100 | 100 | Post-emergence effect at 1.25 g/ha against DIGSA in % ([1]; 1.25 g/ha): 100%; Post-emergence effect at 5 g/ha against SETVI in % [9]: 100%; Post-emergence effect at 20 g/ha against SETVI in % [9]: 100%; Post-emergence effect at 20 g/ha against MATIN in % [10]: 100%; Post-emergence effect at 5 g/ha against ECHCG in % [11]: 100%; Post-emergence effect at 20 g/ha against ECHCG in % [11]: 100%; Post-emergence effect at 1.25 g/ha against ABUTH in % [12]: 100%; Post-emergence effect at 5 g/ha against ABUTH in % [12]: 100%; Post-emergence effect at 20 g/ha against ABUTH in % [12]: 100%; Post-emergence effect at 1.25 g/ha against ALOMY in % ([13]; 1.25 g/ha): 80%; Post-emergence effect at 5 g/ha against ALOMY in % [13]: 100%; Post-emergence effect at 20 g/ha against ALOMY in % [13]: 100%; Post-emergence effect at 1.25 g/ha against TRZAS in % [14]: 20%
